According to PMC12197871 (Protein Science : A Publication of the Protein Society, 2025):
“Also recorded” adds a separate entry of the source.

Experiments:
[1] = molecular target: T1, GsLDH (Geobacillus stearothermophilus, UniProt P00344); test: GsLDH kinetic studies; assay type: biochemical; settings: WT GsLDH
[2] = molecular target: T1, GsLDH; test: Isothermal titration calorimetry of cofactor binding to GsLDH; settings: for Kd: K d; for Kd / K B × 10^5 / TΔS B / ΔG B / ΔH B / binding stoichiometry n: presence of FBP; for Kd / K B × 10^5 / TΔS B / ΔG B / ΔH B: 30°C; for enthalpy change on titration of the enzyme: absence of FBP

T1 sequence (P00344 whole entry): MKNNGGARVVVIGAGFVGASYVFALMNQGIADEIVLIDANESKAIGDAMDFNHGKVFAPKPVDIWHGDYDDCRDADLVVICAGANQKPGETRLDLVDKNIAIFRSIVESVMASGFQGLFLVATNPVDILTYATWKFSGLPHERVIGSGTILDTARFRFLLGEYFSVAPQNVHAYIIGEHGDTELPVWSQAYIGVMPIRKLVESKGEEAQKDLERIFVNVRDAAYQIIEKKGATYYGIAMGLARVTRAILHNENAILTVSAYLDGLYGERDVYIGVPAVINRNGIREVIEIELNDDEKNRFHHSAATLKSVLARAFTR

Compound	fold decrease of K m for pyruvate in the presence of FBP [1] [fold]	fold improvement of catalytic efficiency (k cat/K m) in the presence of FBP [1] [fold]	Kd ([2]; WT with pyruvate) [µM]	Kd ([2]; WT) [µM]	K B × 10^5 ([2]; WT with pyruvate)	TΔS B ([2]; WT with pyruvate) [kcal/mol]	ΔG B ([2]; WT with pyruvate) [kcal/mol]	ΔH B ([2]; WT with pyruvate) [kcal/mol]	K B × 10^5 ([2]; WT)	TΔS B ([2]; WT) [kcal/mol]	ΔG B ([2]; WT) [kcal/mol]	ΔH B ([2]; WT) [kcal/mol]	enthalpy change on titration of the enzyme [2]	binding stoichiometry n [2]
O=C(COP(=O)(O)O)[C@@H](O)[C@H](O)[C@H](O)COP(=O)(O)O [FBP, fructose 1,6‐bisphosphate]	5.6	3.3												
NC(=O)c1ccc[n+]([C@@H]2O[C@H](COP(=O)([O-])OP(=O)(O)OC[C@H]3O[C@@H](n4cnc5c(N)ncnc54)[C@H](O)[C@@H]3O)[C@@H](O)[C@H]2O)c1 [NAD^+, oxidized nicotinamide adenine dinucleotide]			1.6	3	6 ± 2 10^5 M^−1	-37.0	-8.0	-45 ± 2	3 ± 2 10^5 M^−1	-134.4	-7.6	-142 ± 20	did not result in significant enthalpy changes	~1
reduced nicotinamide adenine dinucleotide [NADH]									8 ± 2 10^5 M^−1	-50.8	-8.2	-59 ± 4	did not result in significant enthalpy changes; also recorded: too low to be detected	~1
